Source: PubChem BioAssay AID256 (DTP/NCI, 2004)
Several values for one entry are separate records, joined by “and”; a condition that tells them apart may be missing. Identical values can stand only once. Inconclusive results and toxic doses are left out.

Test system: CD2F1 mice, L1210 leukemia ip, survival T/C
Assay: NCI In Vivo Anticancer Drug Screen. Data for tumor model L1210 Leukemia (intraperitoneal) in CD2F1 (CDF1) mice
Conditions: endpoint: mean survival time, higher = longer survival
Summary of the method: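 Implant tumor; dose compound or vehicle; measure endpoint in both groups; report treated divided by control.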

[1] = dose: 100.0 mg/kg/injection, schedule: Q01DX001 (ip), vehicle: Klucel (hydroxypropylcellulose) (HPC)
[2] = dose: 200.0 mg/kg/injection, schedule: Q01DX001 (ip), vehicle: Klucel (hydroxypropylcellulose) (HPC)
[3] = dose: 400.0 mg/kg/injection, schedule: Q01DX001 (ip), vehicle: Klucel (hydroxypropylcellulose) (HPC)
[4] = dose: 100.0 mg/kg/injection, schedule: Q01DX001 (ip), vehicle: saline sonified
[5] = dose: 100.0 mg/kg/injection, schedule: Q01DX009 (ip), vehicle: saline with Tween-80
[6] = dose: 100.0 mg/kg/injection, schedule: Q04DX003 (ip), vehicle: saline with Tween-80
[7] = dose: 200.0 mg/kg/injection, schedule: Q01DX009 (ip), vehicle: saline with Tween-80
[8] = dose: 200.0 mg/kg/injection, schedule: Q04DX003 (ip), vehicle: saline with Tween-80
[9] = dose: 400.0 mg/kg/injection, schedule: Q01DX009 (ip), vehicle: saline with Tween-80
[10] = dose: 100.0 mg/kg/injection, schedule: Q01DX001 (ip), vehicle: saline with Tween-80
[11] = dose: 200.0 mg/kg/injection, schedule: Q01DX001 (ip), vehicle: saline with Tween-80
[12] = dose: 400.0 mg/kg/injection, schedule: Q01DX001 (ip), vehicle: saline with Tween-80
[13] = dose: 50.0 mg/kg/injection, schedule: Q01DX001 (ip), vehicle: saline

With NC/C(=N\O)c1ccc(-c2ccccc2)cc1 the T/C [1] was 91 % of control, the T/C [2] was 91 % of control and the T/C [3] was 91 % of control.
O=S(=O)(/N=C1\c2ccccc2/C(=N\S(=O)(=O)c2ccccc2)C2C3C=CC(C3)C12)c1ccccc1 (stereo unspecified) was tested, and the T/C (dose: 25.0 mg/kg/injection, schedule: Q01DX001 (ip), vehicle: saline sonified) was 107 % of control, the T/C (dose: 50.0 mg/kg/injection, schedule: Q01DX001 (ip), vehicle: saline sonified) was 102 % of control and the T/C [4] was 101 % of control.
For O=C(Nc1ccc(C2=NCCN2)cc1)c1ccc(C(=O)Nc2ccc(C3=NCCN3)cc2)c(NC(=O)c2ccc(C(=O)Nc3cc(C(=O)Nc4ccc(C5=NCCN5)cc4)ccc3C(=O)Nc3ccc(C4=NCCN4)cc3)cc2)c1, the T/C (dose: 12.5 mg/kg/injection, schedule: Q01DX008 (iv), vehicle: other) was 101 % of control, the T/C (dose: 25.0 mg/kg/injection, schedule: Q01DX008 (iv), vehicle: other) was 101 % of control and the T/C (dose: 50.0 mg/kg/injection, schedule: Q01DX008 (iv), vehicle: other) was 103 % of control.
For C=CCS(=O)(=O)Cc1ccc([N+](=O)[O-])cc1, the T/C (dose: 100.0 mg/kg/injection, schedule: Q04DX002 (ip), vehicle: Klucel (hydroxypropylcellulose) (HPC)) was 105 % of control, the T/C (dose: 200.0 mg/kg/injection, schedule: Q04DX002 (ip), vehicle: Klucel (hydroxypropylcellulose) (HPC)) was 94 % of control and the T/C (dose: 400.0 mg/kg/injection, schedule: Q04DX002 (ip), vehicle: Klucel (hydroxypropylcellulose) (HPC)) was 105 % of control.
c1ccc(CN2CN(Cc3ccccc3)CN(Cc3ccccc3)C2)cc1 was tested, and the T/C [5] was 100 % of control, the T/C [6] was 89 % of control and the T/C [7] was 100 % of control. The T/C [8] was 89 % of control, the T/C [9] was 97 % of control and the T/C (dose: 400.0 mg/kg/injection, schedule: Q04DX003 (ip), vehicle: saline with Tween-80) was 98 % of control.
[O]=[Nb] was tested, and the T/C (dose: 5.0 mg/kg/injection, schedule: Q04DX003 (ip), vehicle: saline) was 102 % of control and the T/C (dose: 10.0 mg/kg/injection, schedule: Q04DX003 (ip), vehicle: saline) was 98 % of control.
CCOC(=O)Nc1cccc(Cl)c1F was tested, and the T/C [5] was 91 % of control, the T/C [7] was 97 % of control and the T/C [9] was 96 % of control.
For NC(=O)/C=C/C(N)=O, the T/C [5] was 98 % of control and the T/C [7] was 98 % of control.
For CCCCOC(=O)c1ccc(OC(=O)Nc2ccc(C)cc2[N+](=O)[O-])cc1, the T/C (dose: 25.0 mg/kg/injection, schedule: Q01DX009 (ip), vehicle: saline + alcohol) was 102 % of control, the T/C (dose: 50.0 mg/kg/injection, schedule: Q01DX001 (ip), vehicle: saline with Tween-80) was 109 % of control and the T/C (dose: 50.0 mg/kg/injection, schedule: Q01DX009 (ip), vehicle: saline + alcohol) was 108 % of control. For the same compound, the T/C [10] was 113 % of control, the T/C (dose: 100.0 mg/kg/injection, schedule: Q01DX009 (ip), vehicle: saline + alcohol) was 103 % of control and the T/C [11] was 109 % of control. The T/C (dose: 200.0 mg/kg/injection, schedule: Q01DX009 (ip), vehicle: saline + alcohol) was 101 % of control and the T/C [12] was 107 % of control.
With N#Cc1cc(N2CC2)c([N+](=O)[O-])cc1[N+](=O)[O-] the T/C [1] was 102 % of control, the T/C [2] was 103 % of control and the T/C [3] was 103 % of control.
With CC(=O)Nc1ccc2c(c1)C(=O)c1cc(NC(C)=O)ccc1-2 the T/C [10] was 98 % of control, the T/C [11] was 111 % of control and the T/C [12] was 98 % of control.
With C(/C=C\c1ccccc1)=Nc1ccccc1 the T/C (dose: 25.0 mg/kg/injection, schedule: Q01DX009 (ip), vehicle: Klucel (hydroxypropylcellulose) (HPC)) was 93 % of control, the T/C (dose: 50.0 mg/kg/injection, schedule: Q01DX009 (ip), vehicle: Klucel (hydroxypropylcellulose) (HPC)) was 93 % of control and the T/C [4] was 93 % of control. For the same compound, the T/C (dose: 100.0 mg/kg/injection, schedule: Q01DX009 (ip), vehicle: Klucel (hydroxypropylcellulose) (HPC)) was 95 % of control, the T/C [5] was 101 % of control and the T/C [7] was 97 % of control. The T/C [9] was 92 % of control.
In the case of O=C(Nc1cc(S(=O)(=O)O)cc2cc(S(=O)(=O)O)c(N=Nc3ccc([As](=O)(O)O)cc3)c(O)c12)c1ccc([N+](=O)[O-])cc1, the T/C (dose: 12.5 mg/kg/injection, schedule: Q04DX002 (ip), vehicle: saline) is reported as 101 % of control, the T/C (dose: 25.0 mg/kg/injection, schedule: Q04DX002 (ip), vehicle: saline) is reported as 94 % of control and the T/C (dose: 50.0 mg/kg/injection, schedule: Q04DX002 (ip), vehicle: saline) is reported as 94 % of control.
With CS(=O)(=O)/C(C#N)=N/O the T/C [13] was 103 % of control, the T/C (dose: 100.0 mg/kg/injection, schedule: Q01DX001 (ip), vehicle: saline) was 98 % of control and the T/C (dose: 200.0 mg/kg/injection, schedule: Q01DX001 (ip), vehicle: saline) was 101 % of control.
C=NNC(=O)c1ccncc1 was tested, and the T/C [5] was 100 % of control, the T/C [7] was 101 % of control and the T/C [9] was 95 % of control.
In the case of CCCCCCCCN(c1ccc(I)cc1)S(=O)(=O)c1ccc(C)cc1, the T/C [6] is reported as 94 % of control and the T/C [8] is reported as 94 % of control.
With c1ccc(CCSc2ncnc3nc[nH]c23)cc1 the T/C (dose: 100.0 mg/kg/injection, schedule: Q01DX007 (ip), vehicle: saline) was 103 % of control, the T/C (dose: 100.0 mg/kg/injection, schedule: Q01DX009 (ip), vehicle: saline) was 122 % of control and the T/C (dose: 100.0 mg/kg/injection, schedule: Q03DX003 (ip), vehicle: saline) was 96 % of control. The T/C (dose: 100.0 mg/kg/injection, schedule: Q04DX003 (ip), vehicle: saline) was 98 % of control, the T/C (dose: 200.0 mg/kg/injection, schedule: Q01DX007 (ip), vehicle: saline) was 111 % of control and the T/C (dose: 200.0 mg/kg/injection, schedule: Q01DX009 (ip), vehicle: saline) was 113 % of control. For the same compound, the T/C (dose: 200.0 mg/kg/injection, schedule: Q03DX003 (ip), vehicle: saline) was 102 % of control, the T/C (dose: 200.0 mg/kg/injection, schedule: Q04DX003 (ip), vehicle: saline) was 103 % of control and the T/C (dose: 400.0 mg/kg/injection, schedule: Q01DX007 (ip), vehicle: saline) was 120 % of control. The T/C (dose: 400.0 mg/kg/injection, schedule: Q01DX009 (ip), vehicle: saline) was 124 % of control, the T/C (dose: 400.0 mg/kg/injection, schedule: Q03DX003 (ip), vehicle: saline) was 106 % of control and the T/C (dose: 400.0 mg/kg/injection, schedule: Q04DX003 (ip), vehicle: saline) was 106 % of control.
In the case of CSc1cc(=O)n(C2OC(COCc3ccccc3)C(OCc3ccccc3)C2OCc2ccccc2)c(=O)[nH]1 (stereo unspecified), the T/C (dose: 100.0 mg/kg/injection, schedule: Q01DX005 (ip), vehicle: saline) is reported as 111 % of control and the T/C (dose: 200.0 mg/kg/injection, schedule: Q01DX005 (ip), vehicle: saline) is reported as 107 % of control.
In the case of COc1ccc(OC)c(NC(=O)NNC(=O)CNC(=O)Nc2cccc(C)n2)c1, the T/C [7] is reported as 92 % of control and the T/C [9] is reported as 88 % of control.
CC(C)(C)CC(C)(C)C1=CC(=O)C(C(C)(C)CC(C)(C)C)=CC1=O was tested, and the T/C [10] was 91 % of control, the T/C [11] was 90 % of control and the T/C [12] was 86 % of control.
In the case of ClCCc1cnc[nH]1, the T/C (dose: 25.0 mg/kg/injection, schedule: Q01DX005 (ip), vehicle: water) is reported as 104 % of control, the T/C (dose: 50.0 mg/kg/injection, schedule: Q01DX005 (ip), vehicle: water) is reported as 101 % of control and the T/C (dose: 100.0 mg/kg/injection, schedule: Q01DX005 (ip), vehicle: water) is reported as 105 % of control.
For Nc1cc(Cl)c(O)c(Cl)c1, the T/C [10] was 92 % of control.
For Cc1c(CNc2ccc(C(=O)NC(CC(=O)O)C(=O)O)cc2)ccc2nc(N)nc(N)c12 (stereo unspecified), the T/C (dose: 0.18 mg/kg/injection, schedule: Q01DX009 (ip), vehicle: saline) was 173 % of control, the T/C (dose: 0.39 mg/kg/injection, schedule: Q01DX009 (ip), vehicle: saline) was 121 % of control and the T/C (dose: 0.78 mg/kg/injection, schedule: Q01DX009 (ip), vehicle: saline with Tween-80) was 94 % of control. For the same compound, the T/C (dose: 0.78 mg/kg/injection, schedule: Q01DX009 (ip), vehicle: saline) was 107 % of control, the T/C (dose: 1.56 mg/kg/injection, schedule: Q01DX009 (ip), vehicle: saline) was 86 % of control and 95 % of control and the T/C (dose: 3.12 mg/kg/injection, schedule: Q01DX009 (ip), vehicle: saline) was 93 % of control. For the same compound, the T/C (dose: 6.25 mg/kg/injection, schedule: Q01DX009 (ip), vehicle: saline) was 92 % of control, the T/C (dose: 25.0 mg/kg/injection, schedule: Q01DX001 (ip), vehicle: saline) was 170 % of control and the T/C [13] was 117 % of control.
With CC/C=C\CC1OCCO1 the T/C (dose: 50.0 mg/kg/injection, schedule: Q01DX009 (ip), vehicle: saline with Tween-80) was 95 % of control, the T/C [5] was 92 % of control and the T/C [7] was 95 % of control.
With Cc1ccc([Si](C)Cl)cc1 the T/C [5] was 96 % of control and the T/C [7] was 93 % of control.
CC1=C(C)C(C(=O)O)C1C(=O)O (stereo unspecified) was tested, and the T/C [10] was 88 % of control and the T/C [11] was 97 % of control.
